Experimental findings from patent EP0383919A1, “STAUROSPORIN DERIVATIVES” (KYOWA HAKKO KOGYO CO., LTD., priority 1988, dated 1989) are described below.

Values after ≈ are worked out from the molar mass of the structure shown. Like-named read-outs stand apart in the source and are kept apart here.

For one assay, the target named is T1, Protein kinase A (Bos taurus, UniProt P00517).
T1 construct: a crude enzyme (partially purified from the calf heart by the method of Kuo et al.); from tissue; host or cells: calf heart
The experiment in a line: biochemical. The following applies: crude enzyme partially purified from the calf heart, histone type IIS, c-AMP. As for the experimental part: (2) Protein kinase A inhibition assay:
Then, the same procedure as the above-described protein kinase C inhibition assay is carried out to calculate IC50.

The next assay deals with HeLa S3 cells. The experiment in a line: HeLa S3 cell growth inhibition assay. The following applies: for IC50: Homo sapiens, HeLa S3, 72 h, read-out: IC50 HeLa S3. In kind it is cell-based. The protocol: (1) HeLa S3 cell growth inhibition assay:
A suspension of HeLa S3 cells (3 x 10^4 cells/ml) in MEM containing 10% fetal serum and 2 mM glutamine is distributed in 0.1 ml portions into the wells of a 96-well microtiter plate and incubated overnight in a C02 incubator at 37°C. Then, 0.05 ml portions of an appropriately diluted solution of the test compound are added. The cells are further cultured in the C02 incubator and the culture supernatant is discarded. After washing with PBS (-) once, 0.1 ml portions of fresh medium are added to the wells and the incubation is continued in the C02 incubator at 37°C for 72 hours. After the culture supernatant is discarded, 0.1 ml portions of culture medium containing 0.02% neutral red are added to the respective wells and the microtiter plate is incubated in the C02 incubator at 37°C for 1 hour to stain the cells. After removal of the culture supernatant, the plate is washed with physiological saline once and the dye is extracted with 0.001 N HC1/30% ethanol. Then, using a microplate reader, the absorbances at 550 nm are measured.

In a further assay the test system is CoLo 320DM cells. In words: CoLo 320DM cell growth inhibition assay. In kind it is cell-based. The note with it: Homo sapiens, read-out: IC50 CoLo 320DM. As for the experimental part: (2) CoLo 320DM cell growth inhibition assay:
Then, the same procedure as (1) is followed and the counting of cells is carried out with a microcell counter.

The mark [1] stands for this setting: read-out: IC50 Protein kinase A (converted).
[2] abbreviates: 50% cell growth inhibition concentration, cell counting with a microcell counter.
The mark [3] stands for this setting: 50% growth inhibition concentration, neutral red staining, absorbance at 550 nm, 72 hours incubation after washing.

As usually defined, the IC50 is the point on the concentration scale where inhibition reaches its midpoint. Turning to `COC1C(N(C)C(C)=O)CC2OC1(C)n1c3ccccc3c3c4c(c5c6ccccc6n2c5c31)C(=O)NC4=O` (stereo not drawn) [Compound 13], on Protein kinase A (setting [1]), the half-maximal inhibitory concentration (IC50) is 68.9 nM.

As for `CN[C@@H]1C[C@H]2O[C@@](C)([C@@H]1OC)n1c3ccccc3c3c4c(c5c6ccccc6n2c5c31)C(=O)N[C@@H]4O` [UCN-01, reference compound], the IC50 at Protein kinase A (IC50 Protein kinase A) is 41.4 nM; in the assay on HeLa S3 cells, 0.17 µg/mL (≈ 0.352 µM).

Consider `COC1C(N(C)C(=O)CN)CC2OC1(C)n1c3ccccc3c3c4c(c5c6ccccc6n2c5c31)C(=O)NC4` (stereo not drawn) [Compound 10], for which the concentration for half-maximal inhibition (IC50) in the assay with CoLo 320DM cells (setting [2]) was 0.55 µg/mL (≈ 1.05 µM); in the assay on HeLa S3 cells (setting [3]), 0.051 µg/mL (≈ 0.0974 µM).

For `CNC1CC2OC(C)(C1OC)n1c3ccccc3c3c4c(c5c6ccccc6n2c5c31)C(=O)N(C)C4=O` (stereo not drawn) [Compound 14], the IC50 is > 1 µg/mL in the assay with CoLo 320DM cells and 0.78 µg/mL (≈ 1.58 µM) in the assay on HeLa S3 cells.

Consider `CNC1CC2OC(C)(C1OC)n1c3ccccc3c3c4c(c5c6ccccc6n2c5c31)C(=O)N(N)C4=O` (stereo not drawn) [Compound 5], for which the IC50 came out at 0.59 µg/mL (≈ 1.19 µM) in the assay with CoLo 320DM cells and 0.75 µg/mL (≈ 1.51 µM) in the assay on HeLa S3 cells.

In the case of `CCOC1NC(=O)c2c1c1c3ccccc3n3c1c1c2c2ccccc2n1C1CC(NC)C(OC)C3(C)O1` (stereo not drawn) [Compound 20], the 50% inhibitory concentration (IC50) in the assay on HeLa S3 cells (setting [3]) worked out at 0.29 µg/mL (≈ 0.568 µM).

As to `CNC1CC2OC(C)(C1OC)n1c3ccccc3c3c4c(c5c6ccccc6n2c5c31)C(=O)NC4OC` (single isomer, unassigned) [Compound 16], at Protein kinase A (setting [1]), the half-inhibitory concentration (IC50) was 383 nM. In addition, in the assay on HeLa S3 cells (setting [3]), the “IC50 HeLa S3” value is 0.20 µg/mL (≈ 0.403 µM).

Consider `CNC1CC2OC(C)(C1OC)n1c3ccccc3c3c4c(c5c6ccccc6n2c5c31)C(=O)NC4OC` (single isomer, unassigned) [Compound 17], for which the 50% inhibitory concentration (IC50) at Protein kinase A (setting [1]) was 242 nM; in the assay on HeLa S3 cells (setting [3]) it was 0.16 µg/mL (≈ 0.322 µM).

For `COC1C(N(C)C=O)CC2OC1(C)n1c3ccccc3c3c4c(c5c6ccccc6n2c5c31)C(=O)NC4` (stereo not drawn) [Compound 3], the IC50 at Protein kinase A (setting [1]) was 20200 nM.

Regarding `CNC1CC2OC(C)(C1OC)n1c3ccccc3c3c4c(c5c6ccccc6n2c5c31)C(=O)NC4=O` (stereo not drawn) [Compound 15], 27.1 nM corresponded to half-maximal inhibition against Protein kinase A (IC50 Protein kinase A) (IC50).

Take `CNC1CC2OC(C)(C1OC)n1c3ccccc3c3c4c(c5c6ccccc6n2c5c31)C(=O)NC4OC` (stereo not drawn) [Compound 11]: the concentration for half-maximal inhibition (IC50) is 322 nM on Protein kinase A (setting [1]), 0.14 µg/mL (≈ 0.282 µM) with CoLo 320DM cells (setting [2]) and 0.17 µg/mL (≈ 0.342 µM) in the assay with HeLa S3 cells (setting [3]).

With `COC1C(N(C)C(C)=O)CC2OC1(C)n1c3ccccc3c3c4c(c5c6ccccc6n2c5c31)C(=O)NC4` (stereo not drawn), at Protein kinase A (setting [1]), the IC50 was 59 nM.

Regarding `CNC1CC2OC(C)(C1OC)n1c3ccccc3c3c4c(c5c6ccccc6n2c5c31)C(=O)N(C=O)C4` (stereo not drawn) [Compound 4], the half-inhibitory concentration (IC50) with CoLo 320DM cells (setting [2]) amounted to 0.19 µg/mL (≈ 0.384 µM); with HeLa S3 cells (setting [3]), 0.18 µg/mL (≈ 0.364 µM).

With `CCCCOC1NC(=O)c2c1c1c3ccccc3n3c1c1c2c2ccccc2n1C1CC(NC)C(OC)C3(C)O1` (stereo not drawn) [Compound 19], the IC50 in the assay with HeLa S3 cells was determined as 0.32 µg/mL (≈ 0.594 µM).

Regarding `CNC1CC2OC(C)(C1OC)n1c3ccccc3c3c4c(c5c6ccccc6n2c5c31)C(=O)NC4OC(C)C` (stereo not drawn) [Compound 18], the half-maximal inhibitory concentration (IC50) with HeLa S3 cells (setting [3]) came to 0.29 µg/mL (≈ 0.553 µM).
